Measurements reported in the kinase profiling compilation of Christmann-Franck et al. (2016).

Legend:
Test in all cases: KINOMEscan competition binding
Details in all cases: compound 1.0 µM
TGFBR2 (human) = TGFBR2 (human) (UniProt P37173)
CIT (human) = CIT (human) (UniProt O14578)
SIK2 (human) = SIK2 (human) (UniProt Q9H0K1)
MAPK15 (human) = MAPK15 (human) (UniProt Q8TD08)
MKNK2 (human) = MKNK2 (human) (UniProt Q9HBH9)
GAK (human) = GAK (human) (UniProt O14976)
FLT4 (human) = FLT4 (human) (UniProt P35916)
MAPKAPK2 (human) = MAPKAPK2 (human) (UniProt P49137)
HIPK1 (human) = HIPK1 (human) (UniProt Q86Z02)
CDK19 (human) = CDK19 (human) (UniProt Q9BWU1)
PIP5K1C (human) = PIP5K1C (human) (UniProt O60331)
FGFR1 (human) = FGFR1 (human) (UniProt P11362)
MAPK11 (human) = MAPK11 (human) (UniProt Q15759)
PRKAA1 (human) = PRKAA1 (human) (UniProt Q13131)
ITK (human) = ITK (human) (UniProt Q08881)
CHUK (human) = CHUK (human) (UniProt O15111)
[1] = test system: EGFR (human), P00533 [747-751 del / S ins]
PHKG2 (human) = PHKG2 (human) (UniProt P15735)
[2] = test system: EGFR (human), P00533 [G719C]
MAPK4 (human) = MAPK4 (human) (UniProt P31152)
PTK6 (human) = PTK6 (human) (UniProt Q13882)
RIPK4 (human) = RIPK4 (human) (UniProt P57078)
PRKCD (human) = PRKCD (human) (UniProt Q05655)
SRC (human) = SRC (human) (UniProt P12931)
SRMS (human) = SRMS (human) (UniProt Q9H3Y6)
[3] = test system: PIK3CA (human), P42336 [C420R]
TIE1 (human) = TIE1 (human) (UniProt P35590)
MAP2K6 (human) = MAP2K6 (human) (UniProt P52564)
STK11 (human) = STK11 (human) (UniProt Q15831)
SYK (human) = SYK (human) (UniProt P43405)
MAP3K15 (human) = MAP3K15 (human) (UniProt Q6ZN16)
RAF1 (human) = RAF1 (human) (UniProt P04049)
CAMK1D (human) = CAMK1D (human) (UniProt Q8IU85)
MAP3K9 (human) = MAP3K9 (human) (UniProt P80192)
PRKD3 (human) = PRKD3 (human) (UniProt O94806)
ERN1 (human) = ERN1 (human) (UniProt O75460)
[4] = test system: MET (human), P08581 [M1250T]
FES (human) = FES (human) (UniProt P07332)
MAP2K3 (human) = MAP2K3 (human) (UniProt P46734)
MAP3K11 (human) = MAP3K11 (human) (UniProt Q16584)
NEK3 (human) = NEK3 (human) (UniProt P51956)
[5] = test system: FGFR3 (human), P22607 [G697C]
GSK3B (human) = GSK3B (human) (UniProt P49841)

Chain of MKNK2 (human) (Q9HBH9 whole entry, looked up): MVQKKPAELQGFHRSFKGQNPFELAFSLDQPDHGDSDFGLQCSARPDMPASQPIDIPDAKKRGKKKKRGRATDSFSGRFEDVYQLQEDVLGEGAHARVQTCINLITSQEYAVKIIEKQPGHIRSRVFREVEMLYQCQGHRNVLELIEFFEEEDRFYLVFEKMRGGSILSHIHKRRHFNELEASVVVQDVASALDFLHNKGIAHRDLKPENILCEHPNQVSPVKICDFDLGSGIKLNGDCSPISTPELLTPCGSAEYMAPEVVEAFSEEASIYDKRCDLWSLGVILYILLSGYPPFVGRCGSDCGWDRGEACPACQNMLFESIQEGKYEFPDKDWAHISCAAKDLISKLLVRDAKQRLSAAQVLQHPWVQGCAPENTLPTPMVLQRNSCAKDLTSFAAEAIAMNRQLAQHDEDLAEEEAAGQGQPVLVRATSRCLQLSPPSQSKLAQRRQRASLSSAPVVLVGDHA
Chain of MAPK15 (human) (Q8TD08 whole entry, looked up): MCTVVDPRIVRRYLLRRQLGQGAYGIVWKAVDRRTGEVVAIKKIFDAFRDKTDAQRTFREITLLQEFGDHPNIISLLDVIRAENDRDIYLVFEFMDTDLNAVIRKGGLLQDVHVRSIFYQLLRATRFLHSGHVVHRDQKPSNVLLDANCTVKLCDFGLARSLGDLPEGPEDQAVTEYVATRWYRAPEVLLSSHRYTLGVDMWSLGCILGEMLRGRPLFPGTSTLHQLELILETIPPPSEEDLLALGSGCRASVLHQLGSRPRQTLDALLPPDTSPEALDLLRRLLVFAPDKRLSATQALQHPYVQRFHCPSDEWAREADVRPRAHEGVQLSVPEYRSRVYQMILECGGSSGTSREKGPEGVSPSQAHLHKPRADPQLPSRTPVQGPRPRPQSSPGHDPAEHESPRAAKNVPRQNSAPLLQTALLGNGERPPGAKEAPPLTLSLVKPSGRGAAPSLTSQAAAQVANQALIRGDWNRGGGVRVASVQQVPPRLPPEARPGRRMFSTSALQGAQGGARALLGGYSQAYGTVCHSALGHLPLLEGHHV
Chain of MAP2K6 (human) (P52564 whole entry, looked up): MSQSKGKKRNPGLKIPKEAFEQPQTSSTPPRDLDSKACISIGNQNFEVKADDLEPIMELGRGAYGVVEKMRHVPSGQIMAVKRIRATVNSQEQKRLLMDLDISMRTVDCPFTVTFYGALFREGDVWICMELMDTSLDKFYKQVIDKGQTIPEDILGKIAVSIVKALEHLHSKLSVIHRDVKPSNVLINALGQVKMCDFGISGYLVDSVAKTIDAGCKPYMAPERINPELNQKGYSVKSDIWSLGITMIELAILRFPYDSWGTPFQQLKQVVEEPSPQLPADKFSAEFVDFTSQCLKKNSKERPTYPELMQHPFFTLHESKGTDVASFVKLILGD
Chain of ITK (human) (Q08881 whole entry, looked up): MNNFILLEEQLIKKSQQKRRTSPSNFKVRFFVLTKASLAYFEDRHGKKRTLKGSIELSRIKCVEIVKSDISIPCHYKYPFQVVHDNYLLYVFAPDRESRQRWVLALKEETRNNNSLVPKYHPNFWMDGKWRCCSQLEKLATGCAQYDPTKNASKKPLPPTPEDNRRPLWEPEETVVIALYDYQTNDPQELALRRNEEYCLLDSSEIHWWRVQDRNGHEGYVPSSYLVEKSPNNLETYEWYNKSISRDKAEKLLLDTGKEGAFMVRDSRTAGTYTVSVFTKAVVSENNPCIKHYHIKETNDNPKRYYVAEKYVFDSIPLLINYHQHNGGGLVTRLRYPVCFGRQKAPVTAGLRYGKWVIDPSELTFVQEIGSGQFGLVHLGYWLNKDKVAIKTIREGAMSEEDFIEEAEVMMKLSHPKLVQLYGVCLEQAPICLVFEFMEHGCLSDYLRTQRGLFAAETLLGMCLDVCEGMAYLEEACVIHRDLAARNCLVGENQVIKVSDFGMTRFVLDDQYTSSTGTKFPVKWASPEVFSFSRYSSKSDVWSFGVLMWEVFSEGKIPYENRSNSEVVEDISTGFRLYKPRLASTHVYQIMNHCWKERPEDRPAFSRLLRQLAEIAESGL
Chain of FLT4 (human) (P35916 whole entry, looked up): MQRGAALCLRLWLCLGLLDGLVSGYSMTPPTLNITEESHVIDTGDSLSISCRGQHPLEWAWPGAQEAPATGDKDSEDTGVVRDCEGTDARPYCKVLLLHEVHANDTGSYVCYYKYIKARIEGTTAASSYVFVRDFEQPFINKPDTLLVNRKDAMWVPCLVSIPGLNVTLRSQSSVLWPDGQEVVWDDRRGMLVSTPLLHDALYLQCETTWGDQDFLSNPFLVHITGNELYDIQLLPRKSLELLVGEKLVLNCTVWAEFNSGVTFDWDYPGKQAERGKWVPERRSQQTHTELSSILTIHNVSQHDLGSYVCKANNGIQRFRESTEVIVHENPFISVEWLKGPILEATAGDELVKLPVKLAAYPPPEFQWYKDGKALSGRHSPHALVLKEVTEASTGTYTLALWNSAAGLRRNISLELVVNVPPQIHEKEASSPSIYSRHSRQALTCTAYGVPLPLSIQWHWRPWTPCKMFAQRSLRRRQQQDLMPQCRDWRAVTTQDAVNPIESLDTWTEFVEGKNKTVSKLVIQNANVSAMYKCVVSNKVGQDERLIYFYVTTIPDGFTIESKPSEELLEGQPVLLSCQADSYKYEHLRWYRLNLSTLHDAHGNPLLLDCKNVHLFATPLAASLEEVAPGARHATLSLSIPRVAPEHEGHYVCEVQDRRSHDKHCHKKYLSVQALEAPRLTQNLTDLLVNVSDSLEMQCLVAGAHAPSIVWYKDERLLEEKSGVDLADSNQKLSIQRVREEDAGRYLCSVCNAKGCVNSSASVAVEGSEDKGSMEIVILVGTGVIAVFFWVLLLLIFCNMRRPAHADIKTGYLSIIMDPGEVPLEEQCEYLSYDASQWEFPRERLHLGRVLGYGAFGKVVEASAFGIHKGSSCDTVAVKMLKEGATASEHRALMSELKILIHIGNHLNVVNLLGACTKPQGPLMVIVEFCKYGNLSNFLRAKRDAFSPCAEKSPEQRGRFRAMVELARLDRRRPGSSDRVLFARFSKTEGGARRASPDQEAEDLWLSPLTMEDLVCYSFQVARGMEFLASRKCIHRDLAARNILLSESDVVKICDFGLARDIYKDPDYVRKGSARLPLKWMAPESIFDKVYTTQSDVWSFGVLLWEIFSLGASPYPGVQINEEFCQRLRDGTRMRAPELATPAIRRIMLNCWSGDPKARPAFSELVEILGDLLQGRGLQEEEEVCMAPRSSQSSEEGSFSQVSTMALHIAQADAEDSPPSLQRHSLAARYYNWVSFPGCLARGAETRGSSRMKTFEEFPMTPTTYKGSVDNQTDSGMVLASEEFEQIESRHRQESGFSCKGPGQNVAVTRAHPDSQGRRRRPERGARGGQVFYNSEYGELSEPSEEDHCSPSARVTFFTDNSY
Chain of GAK (human) (O14976 whole entry, looked up): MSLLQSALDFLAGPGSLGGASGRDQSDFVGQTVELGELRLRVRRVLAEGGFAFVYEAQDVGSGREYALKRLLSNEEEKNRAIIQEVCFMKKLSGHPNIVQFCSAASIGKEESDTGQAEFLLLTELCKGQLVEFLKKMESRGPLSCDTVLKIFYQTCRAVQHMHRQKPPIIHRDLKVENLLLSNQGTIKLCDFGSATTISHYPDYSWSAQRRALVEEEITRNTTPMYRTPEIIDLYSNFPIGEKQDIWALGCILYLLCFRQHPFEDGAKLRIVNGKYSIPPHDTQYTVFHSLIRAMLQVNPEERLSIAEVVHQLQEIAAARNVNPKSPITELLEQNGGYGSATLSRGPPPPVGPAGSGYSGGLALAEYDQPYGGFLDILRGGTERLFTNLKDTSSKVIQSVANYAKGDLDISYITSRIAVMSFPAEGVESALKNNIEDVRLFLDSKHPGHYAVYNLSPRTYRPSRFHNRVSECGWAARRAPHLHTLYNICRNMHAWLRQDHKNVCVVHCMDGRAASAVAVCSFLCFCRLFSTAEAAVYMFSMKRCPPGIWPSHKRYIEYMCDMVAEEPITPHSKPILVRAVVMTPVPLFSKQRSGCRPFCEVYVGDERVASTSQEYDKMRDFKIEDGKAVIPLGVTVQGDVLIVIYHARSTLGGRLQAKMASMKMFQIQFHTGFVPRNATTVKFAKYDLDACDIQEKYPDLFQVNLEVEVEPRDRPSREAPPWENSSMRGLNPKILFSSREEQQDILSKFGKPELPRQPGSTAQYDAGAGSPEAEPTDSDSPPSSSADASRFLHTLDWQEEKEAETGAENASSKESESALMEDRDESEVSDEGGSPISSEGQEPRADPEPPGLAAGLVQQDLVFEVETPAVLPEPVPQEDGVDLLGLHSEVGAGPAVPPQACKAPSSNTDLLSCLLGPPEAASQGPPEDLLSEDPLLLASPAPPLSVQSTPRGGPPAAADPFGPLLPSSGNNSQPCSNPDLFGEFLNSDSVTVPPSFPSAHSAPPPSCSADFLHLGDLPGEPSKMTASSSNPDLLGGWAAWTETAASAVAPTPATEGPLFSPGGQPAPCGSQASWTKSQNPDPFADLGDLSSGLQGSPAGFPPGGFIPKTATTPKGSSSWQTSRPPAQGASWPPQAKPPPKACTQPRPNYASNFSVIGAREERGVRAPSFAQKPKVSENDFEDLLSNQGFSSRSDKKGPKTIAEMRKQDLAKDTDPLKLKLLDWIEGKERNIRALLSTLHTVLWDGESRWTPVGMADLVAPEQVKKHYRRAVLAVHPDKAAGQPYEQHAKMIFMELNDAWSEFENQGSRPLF
Chain of STK11 (human) (Q15831 whole entry, looked up): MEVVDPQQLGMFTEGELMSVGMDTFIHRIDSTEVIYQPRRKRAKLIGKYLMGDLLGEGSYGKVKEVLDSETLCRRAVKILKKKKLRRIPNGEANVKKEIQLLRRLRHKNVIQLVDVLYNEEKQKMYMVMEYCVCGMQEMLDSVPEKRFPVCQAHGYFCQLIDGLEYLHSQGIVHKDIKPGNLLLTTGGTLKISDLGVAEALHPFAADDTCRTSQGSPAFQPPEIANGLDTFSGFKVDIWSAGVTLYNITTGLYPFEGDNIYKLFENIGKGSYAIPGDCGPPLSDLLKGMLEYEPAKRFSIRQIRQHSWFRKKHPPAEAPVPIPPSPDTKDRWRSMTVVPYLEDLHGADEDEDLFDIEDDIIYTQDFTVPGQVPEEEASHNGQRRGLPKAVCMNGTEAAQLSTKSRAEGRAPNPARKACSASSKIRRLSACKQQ

Molecule Cc1cc(NC(=O)c2cccc(NC(=O)/C=C/CN(C)C)c2)ccc1Nc1nccc(-c2cccnc2)n1 has a kinase still bound, per cent of control (TGFBR2 (human)) of 64%, a kinase still bound, per cent of control (CIT (human)) of 100% and a kinase still bound, per cent of control (SIK2 (human)) of 88%. It also gave a kinase still bound, per cent of control (MAPK15 (human)) of 100%, a kinase still bound, per cent of control (MKNK2 (human)) of 6.8% and a kinase still bound, per cent of control (GAK (human)) of 92%. The kinase still bound, per cent of control (FLT4 (human)) was 100%, the kinase still bound, per cent of control (MAPKAPK2 (human)) was 100% and the kinase still bound, per cent of control (HIPK1 (human)) was 100%. For the same molecule, the kinase still bound, per cent of control (CDK19 (human)) was 62%, the kinase still bound, per cent of control (PIP5K1C (human)) was 93% and the kinase still bound, per cent of control (FGFR1 (human)) was 94%. The kinase still bound, per cent of control (MAPK11 (human)) was 20%, the kinase still bound, per cent of control (PRKAA1 (human)) was 100% and the kinase still bound, per cent of control (ITK (human)) was 100%. For the same molecule, the kinase still bound, per cent of control (CHUK (human)) was 100%, the kinase still bound, per cent of control [1] was 95% and the kinase still bound, per cent of control (PHKG2 (human)) was 89%. It also gave a kinase still bound, per cent of control [2] of 81%, a kinase still bound, per cent of control (MAPK4 (human)) of 81% and a kinase still bound, per cent of control (PTK6 (human)) of 100%. The kinase still bound, per cent of control (RIPK4 (human)) was 79%, the kinase still bound, per cent of control (PRKCD (human)) was 100% and the kinase still bound, per cent of control (SRC (human)) was 87%. It also gave a kinase still bound, per cent of control (SRMS (human)) of 94%, a kinase still bound, per cent of control [3] of 99% and a kinase still bound, per cent of control (TIE1 (human)) of 91%. The kinase still bound, per cent of control (MAP2K6 (human)) was 95%, the kinase still bound, per cent of control (STK11 (human)) was 100% and the kinase still bound, per cent of control (SYK (human)) was 100%. The kinase still bound, per cent of control (MAP3K15 (human)) was 82%, the kinase still bound, per cent of control (RAF1 (human)) was 93% and the kinase still bound, per cent of control (CAMK1D (human)) was 100%. It also gave a kinase still bound, per cent of control (MAP3K9 (human)) of 100%, a kinase still bound, per cent of control (PRKD3 (human)) of 80% and a kinase still bound, per cent of control (ERN1 (human)) of 73%. For the same molecule, the kinase still bound, per cent of control [4] was 6.2%, the kinase still bound, per cent of control (FES (human)) was 89% and the kinase still bound, per cent of control (MAP2K3 (human)) was 95%. For the same molecule, the kinase still bound, per cent of control (MAP3K11 (human)) was 91%, the kinase still bound, per cent of control (NEK3 (human)) was 73% and the kinase still bound, per cent of control [5] was 100%. It also gave a kinase still bound, per cent of control (GSK3B (human)) of 100%.

CN(C)C/C=C/C(=O)Nc1cccc(C(=O)Nc2ccc(Nc3nccc(/C(C#N)=C4\Nc5ccccc5S4)n3)cc2)c1 gave a kinase still bound, per cent of control (TGFBR2 (human)) of 100%, a kinase still bound, per cent of control (CIT (human)) of 65% and a kinase still bound, per cent of control (SIK2 (human)) of 100%. For the same molecule, the kinase still bound, per cent of control (MAPK15 (human)) was 76%, the kinase still bound, per cent of control (MKNK2 (human)) was 68% and the kinase still bound, per cent of control (GAK (human)) was 79%. The kinase still bound, per cent of control (FLT4 (human)) was 78%, the kinase still bound, per cent of control (MAPKAPK2 (human)) was 92% and the kinase still bound, per cent of control (HIPK1 (human)) was 100%. It also gave a kinase still bound, per cent of control (CDK19 (human)) of 93%, a kinase still bound, per cent of control (PIP5K1C (human)) of 100% and a kinase still bound, per cent of control (FGFR1 (human)) of 100%. It also gave a kinase still bound, per cent of control (MAPK11 (human)) of 100%, a kinase still bound, per cent of control (PRKAA1 (human)) of 100% and a kinase still bound, per cent of control (ITK (human)) of 85%. It also gave a kinase still bound, per cent of control (CHUK (human)) of 100%, a kinase still bound, per cent of control [1] of 85% and a kinase still bound, per cent of control (PHKG2 (human)) of 100%. The kinase still bound, per cent of control [2] was 86%, the kinase still bound, per cent of control (MAPK4 (human)) was 100% and the kinase still bound, per cent of control (PTK6 (human)) was 100%. For the same molecule, the kinase still bound, per cent of control (RIPK4 (human)) was 100%, the kinase still bound, per cent of control (PRKCD (human)) was 47% and the kinase still bound, per cent of control (SRC (human)) was 100%. For the same molecule, the kinase still bound, per cent of control (SRMS (human)) was 100%, the kinase still bound, per cent of control [3] was 100% and the kinase still bound, per cent of control (TIE1 (human)) was 70%. For the same molecule, the kinase still bound, per cent of control (MAP2K6 (human)) was 100%, the kinase still bound, per cent of control (STK11 (human)) was 90% and the kinase still bound, per cent of control (SYK (human)) was 85%. It also gave a kinase still bound, per cent of control (MAP3K15 (human)) of 100%, a kinase still bound, per cent of control (RAF1 (human)) of 91% and a kinase still bound, per cent of control (CAMK1D (human)) of 100%. The kinase still bound, per cent of control (MAP3K9 (human)) was 100%, the kinase still bound, per cent of control (PRKD3 (human)) was 100% and the kinase still bound, per cent of control (ERN1 (human)) was 100%. It also gave a kinase still bound, per cent of control [4] of 79%, a kinase still bound, per cent of control (FES (human)) of 100% and a kinase still bound, per cent of control (MAP2K3 (human)) of 88%. The kinase still bound, per cent of control (MAP3K11 (human)) was 100%, the kinase still bound, per cent of control (NEK3 (human)) was 100% and the kinase still bound, per cent of control [5] was 31%. For the same molecule, the kinase still bound, per cent of control (GSK3B (human)) was 93%.
